Results published in patent US20190119642A1, “METHODS AND COMPOSITIONS RELATING TO HEMATOPOIETIC STEM CELL EXPANSION” (CHILDREN'S MEDICAL CENTER CORPORATION, priority 2016, published 2019).

System: CD34+ enriched cord blood cells
Test: Ex vivo expansion of CD34+ enriched cord blood cells, 12 days in culture with small molecules, flow cytometry
Settings: for percentage and total number of Lin-CD34+ and Lin- cells: CD34+ cord blood cells cultured in vitro 12 days, FIGS. 21-23
Method: CD34+ enriched cord blood cells were obtained from AllCells. Ten thousand cells were cultured in StemSpan SFEMII containing recombinant human SCF, TPO, IL-3 and FLT3L (all at 100 ng/ml). Cells were cultured with cytokine containing media with the vehicle control (DMSO) or the indicated small molecules. Media was changed every three days. On day twelve, cells were harvested, counted, and analyzed by flow cytometry.
Plots show samples previously gated through live (PI-) and singlet gates. Gating strategy for immunophenotypic hematopoietic stem cells (HSCs) defined as Lin−CD34+CD45RA−CD90+ and Lin−CD34+CD45RA−CD90+CD49f+EPCR+ HSCs is shown. Percentages indicate the frequency of the parent (previous) gate.
Plots show samples previously gated through live (PI-) and singlet gates. Gating strategy for immunophenotypic hematopoietic stem cells (HSCs) as Lin−CD34+CD45RA−CD90+ and Lin−CD34+CD45RA−CD90+CD49f+EPCR+ are shown. Percentages indicate the frequency of cells in the parent population.
Depicted is the total number of live cells after 12 days of culturing 10,000 CD34+ enriched cord blood cells in the indicated conditions.
CD34+ cord blood cells were cultured in vitro in the presence of different combinations of compounds as described herein.

In the case of C[S+]([O-])c1ccc(-c2nc(-c3ccc(F)cc3)c(-c3ccncc3)[nH]2)cc1 (centres unmarked) [A, A83-01], the “percentage and total number of Lin-CD34+ and Lin- cells” value is reported as “increased”.

For Nc1cccc2c1C(=O)N(C1CCC(=O)NC1=O)C2=O (centres unmarked) [POM, pomalidomide], the “percentage and total number of Lin-CD34+ and Lin- cells” value was “increased”, the “percentage and total number of Lin-CD45RA-CD90+ HSCs” value (CD34+ cord blood cells, 12 days culture, FIG. 24, 25) was “increased” and the “percentage of Lin-CD45RA-CD90+CD49f+EPCR+ HSCs” value (CD34+ cord blood cells, 12 days culture, FIG. 26, 27) was “increased”.

With CC(C)n1cnc2c(NCCc3ccc(O)cc3)nc(-c3csc4ccccc34)nc21 [SR1, StemRegenin 1] the “percentage and total number of Lin-CD34+ and Lin- cells” value was “increased”.
